Common to all, as to assay type: cell-based
The target of one assay is T1, CCDC6-RET-BaF3 (Homo sapiens, UniProt P07949).
T1 construct: fused on or other part: Q16204 (Coiled-coil domain-containing protein 6)
Briefly: Growth inhibition of CCDC6-RET-BaF3 cells stably transfected with kinase (MTS). As to conditions: 48 h, read-out: CCDC6-RET (IC50/nM). The procedure, abridged: (§1)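 BaF3 cells stably expressing CCDC6-RET or KIF5B-RET, or parental BaF3, 2×10^4 cells/well, treated 48 h at 37 °C with 8-point 1:3 dilutions from 10 μM (0.1% DMSO). MTS/PES added 1–4 h, OD490 read; inhibition versus DMSO and blank gave IC50.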

The target of the next assay is T2, KIF5B-RET-BaF3 (Homo sapiens, UniProt P07949).
T2 construct: fused on or other part: P33176 (Kinesin-1 heavy chain)
T2 sequence (P07949 whole entry, change not shown, the tested form may be a part): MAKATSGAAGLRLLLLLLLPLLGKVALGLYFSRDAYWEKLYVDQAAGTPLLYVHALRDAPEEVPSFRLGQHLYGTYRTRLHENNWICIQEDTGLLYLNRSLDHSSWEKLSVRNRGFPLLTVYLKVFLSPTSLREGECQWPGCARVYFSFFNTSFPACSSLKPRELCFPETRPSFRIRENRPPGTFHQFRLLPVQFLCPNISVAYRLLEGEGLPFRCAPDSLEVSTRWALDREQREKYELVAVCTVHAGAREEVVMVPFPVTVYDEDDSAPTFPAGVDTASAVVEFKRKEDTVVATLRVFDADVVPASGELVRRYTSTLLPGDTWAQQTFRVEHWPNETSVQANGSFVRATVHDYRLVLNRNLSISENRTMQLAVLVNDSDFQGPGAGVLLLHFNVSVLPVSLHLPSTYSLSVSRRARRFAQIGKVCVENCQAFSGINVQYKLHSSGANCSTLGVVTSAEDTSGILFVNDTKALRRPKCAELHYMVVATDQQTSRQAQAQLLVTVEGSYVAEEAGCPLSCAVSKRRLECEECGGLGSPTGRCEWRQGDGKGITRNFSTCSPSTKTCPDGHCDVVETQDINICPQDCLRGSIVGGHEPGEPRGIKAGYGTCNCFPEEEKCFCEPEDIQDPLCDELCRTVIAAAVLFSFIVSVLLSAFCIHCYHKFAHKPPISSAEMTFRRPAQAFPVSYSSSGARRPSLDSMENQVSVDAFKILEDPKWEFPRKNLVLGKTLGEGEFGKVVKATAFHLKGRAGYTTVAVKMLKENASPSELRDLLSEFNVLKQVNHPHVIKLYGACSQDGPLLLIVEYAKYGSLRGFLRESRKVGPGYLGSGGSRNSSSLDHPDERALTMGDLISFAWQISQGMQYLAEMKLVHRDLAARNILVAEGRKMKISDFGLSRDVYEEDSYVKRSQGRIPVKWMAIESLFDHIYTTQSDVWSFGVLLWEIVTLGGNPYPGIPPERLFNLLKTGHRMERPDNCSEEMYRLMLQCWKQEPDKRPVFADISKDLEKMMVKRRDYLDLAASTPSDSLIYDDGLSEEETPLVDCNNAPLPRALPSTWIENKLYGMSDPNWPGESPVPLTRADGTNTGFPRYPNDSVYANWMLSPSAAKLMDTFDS
In words: Growth inhibition of KIF5B-RET-BaF3 cells stably transfected with kinase (MTS). The conditions noted are these: 48 h, read-out: KIF5B-RET (IC50/nM). The gist of the method: as §1

In another assay the test system is LC-2/AD cells. Briefly: Growth inhibition of RET-positive non-small cell lung cancer cells LC-2/AD (MTS). The conditions noted are these: Homo sapiens, LC-2/AD non-small cell lung cancer cells, 48 h. The method, then:
Growth inhibitory activity of compounds on kinase RET-positive non-small cell lung cancer cells LC-2/AD
The specific test method is given as follows:
1) Medium: DMEM (Dulbecco's modified eagle medium) or RPMI 1640 (containing 10% fetal bovine serum, 100 μg/mL ampicillin, 100 μg/mL streptomycin).
2) Reagents: MTS reaction solution (containing 2 mg/mL of MTS [3-(4,5-dimethylthiazol-2-yl)-5-(3-carboxymethoxyphenyl)-2-(4-sulfophenyl)-2H-tetrazolium, inner Salt]; 100 μg/mL PES (phenazine […])).
3) Compound test: LC-2/AD cells (2×10^4 cells/well) were incubated into a 96-well culture plate, the volume of cell culture fluid was 90 μL, and then 10 μL of the compound at each gradient concentration was added (the highest concentration was 10 μM, which was diluted stepwise by ⅓, and 8 concentration points were set in total; the system contained 0.1% DMSO (dimethyl sulfoxide)). The cell plate with uniformly mixed compound was cultured in a cell culture incubator (37° C.; 5% CO2) for 48 h, then 20 μL of MTS reaction solution was added, uniformly mixed and incubated in the cell culture incubator (37° C.; 5% CO2) for 1-4 hr; OD values at 490 nm were measured by a microplate reader (VARIOSKAN FLASH, Thermo). Three parallels were set in each group of experiments, with 0.1% (a final concentration) DMSO as a negative control, and a medium without cells or compounds as a blank control. The cell growth inhibition rate was calculated by the following formula: Cell growth inhibition rate %=1−(ODexperimental group−ODblank group)/(ODnegative group−ODblank group)×100%
4) IC50 calculation: The semi-inhibitory concentration of the compound acting on cell growth was calculated using GradPad Prism 5 software according to the measured cell growth inhibition rate.

The next assay has as its system wild-type BaF3. In words: Growth inhibition of wild-type BaF3 cells, broad-spectrum toxicity (MTS). The conditions noted are these: Mus musculus, 48 h, read-out: WT Ba/F3 (IC50/nM). The procedure, abridged: as §1

Each structure is given as a SMILES string.

T1 sequence (P07949 whole entry, change not shown, the tested form may be a part): as above

As for `Cc1ccc(C(=O)Nc2ccc(CN3CCN(C)CC3)c(C(F)(F)F)c2)cc1Oc1nc(-c2cccnc2)nc2c1cnn2C` [II-m-1], the GI50 at CCDC6-RET-BaF3 was 35.2 nM; on KIF5B-RET-BaF3 it was 8.28 nM. The compound further came in with an IC50 with LC-2/AD cells of 301 nM.
On to `Cc1ccc(Oc2nc(-c3ccncc3)nc3c2ncn3C)cc1C(=O)Nc1ccc(CN2CCN(C)CC2)c(C(F)(F)F)c1` [I-n-3], for which the GI50 at CCDC6-RET-BaF3 stood at 8.38 nM; at KIF5B-RET-BaF3, 40.5 nM. For the same compound, in the assay with LC-2/AD cells, the IC50 worked out at 818 nM.
The like results for `Cc1ccc(Oc2nc(-c3ccncc3)nc3nn(C)cc23)cc1C(=O)Nc1ccc(CN2CCN(C)CC2)c(C(F)(F)F)c1` [IV-n-2] were, in that order, 172 nM, 173 nM and 1400 nM.
In the case of `Cc1ccc(C(=O)Nc2ccc(CN3CCN(C)CC3)c(C(F)(F)F)c2)cc1Oc1cc(-c2cccnc2)nc2c1ccn2C` [V-m-3], in the assay with wild-type BaF3, the IC50 was determined as 3370 nM. Moreover, the GI50 on CCDC6-RET-BaF3 turned out to be 1170 nM; on KIF5B-RET-BaF3, 613 nM.
For `Cc1ccc(C(=O)Nc2cc(CN3CCN(C)CC3)cc(C(F)(F)F)c2)cc1Oc1nc(-c2cccnc2)nc2cc[nH]c12` [III-q-1] the same measures were 1430 nM, 1330 nM and 1540 nM.
For `Cc1ccc(Oc2cc(-c3cccnc3)nc3[nH]ccc23)cc1C(=O)Nc1ccc(CN2CCN(C)CC2)c(C(F)(F)F)c1` [V-n-1], the IC50 with wild-type BaF3 is 2310 nM. Moreover, the GI50 at CCDC6-RET-BaF3 was 2900 nM; on KIF5B-RET-BaF3, 2120 nM.
Consider `Cc1ccc(C(=O)Nc2ccc(CN3CCN(C)CC3)c(C(F)(F)F)c2)cc1Oc1nc(-c2ccc(Cl)cc2)nc2ccn(C)c12` [III-m-14], for which, in the assay with wild-type BaF3, the IC50 was 3190 nM. Further, the GI50 turned out to be 2920 nM on CCDC6-RET-BaF3 and 2720 nM on KIF5B-RET-BaF3.
For the compound `Cc1ccc(C(=O)Nc2ccc(CN3CCN(C)CC3)c(C(F)(F)F)c2)cc1Oc1nc(N(C)C)nc2ccn(C)c12` [III-m-24], the IC50 with wild-type BaF3 is 3080 nM. Also, the GI50 on CCDC6-RET-BaF3 came out at 3120 nM; on KIF5B-RET-BaF3, 3230 nM.
Take `Cc1ccc(C(=O)Nc2cc(CN3CCN(C)CC3)cc(C(F)(F)F)c2)cc1Oc1nc(-c2ccncc2)nc2ccn(C)c12` [III-q-4]: the IC50 in the assay with wild-type BaF3 is 1330 nM. Besides, the GI50 is 901 nM at CCDC6-RET-BaF3 and 1270 nM at KIF5B-RET-BaF3.
As for `Cc1ccc(Oc2nc(-c3ccsc3)nc3cc[nH]c23)cc1NC(=O)c1ccc(CN2CCN(C)CC2)c(C(F)(F)F)c1` [III-j-4], the IC50 in the assay with wild-type BaF3 was 3410 nM. Further, the GI50 at CCDC6-RET-BaF3 stood at 1360 nM; on KIF5B-RET-BaF3 it was 1720 nM.
Take `CN1CCN(Cc2ccc(NC(=O)c3cc(Oc4nc(-c5cccnc5)nc5ccn(C)c45)ccc3Cl)cc2C(F)(F)F)CC1` [III-o-3]: the IC50 in the assay on wild-type BaF3 stood at 1300 nM. For the same compound, the GI50 on CCDC6-RET-BaF3 is 1280 nM; on KIF5B-RET-BaF3, 1330 nM.
For the compound `Cc1ccc(Oc2nc(-c3ccc(N)cc3)nc3ccn(C)c23)cc1NC(=O)c1ccc(CN2CCN(C)CC2)c(C(F)(F)F)c1` [III-j-16], the IC50 in the assay with wild-type BaF3 was 2280 nM. The GI50 is 2040 nM on CCDC6-RET-BaF3 and 1470 nM at KIF5B-RET-BaF3.
Turning to `Cc1ccc(Oc2nc(-c3ccoc3)nc3ccn(C)c23)cc1NC(=O)c1ccc(CN2CCN(C)CC2)c(C(F)(F)F)c1` [III-j-10], the IC50 in the assay with wild-type BaF3 came to 1460 nM. Also, the GI50 was determined as 234 nM at CCDC6-RET-BaF3 and 428 nM on KIF5B-RET-BaF3.
As to `Cc1ccc(Oc2nc(-c3ccncc3)nc3[nH]cnc23)cc1C(=O)Nc1ccc(CN2CCN(C)CC2)c(C(F)(F)F)c1` [I-n-1], in the assay with wild-type BaF3, the IC50 was greater than 10000 nM. In addition, the GI50 was 298 nM on CCDC6-RET-BaF3 and 900 nM at KIF5B-RET-BaF3.
As to `CN1CCN(Cc2ccc(C(=O)Nc3cc(Oc4nc(-c5ccc(Cl)cc5)nc5cc[nH]c45)ccc3Cl)cc2C(F)(F)F)CC1` [III-k-13], the IC50 with wild-type BaF3 turned out to be 1600 nM. The results for the GI50 on CCDC6-RET-BaF3 and at KIF5B-RET-BaF3 were 1450 nM and 1550 nM, respectively.
`Cc1ccc(Oc2nc(-c3ccc(Cl)cc3)nc3c2ncn3C)cc1NC(=O)c1ccc(CN2CCN(C)CC2)c(C(F)(F)F)c1` [I-j-3]: the IC50 in the assay on wild-type BaF3 is 1770 nM. The values for the GI50 on CCDC6-RET-BaF3 and on KIF5B-RET-BaF3 were 1420 nM and 1430 nM, respectively.
For `Cc1ccc(Oc2nc(-c3cccnc3)nc3ccn(C)c23)cc1C(=O)Nc1cc(CN2CCN(C)CC2)cc(C(F)(F)F)c1` [III-r-3] the same measures were 3650 nM, 3770 nM and 2720 nM.
As to `CN1CCN(Cc2ccc(NC(=O)c3cc(Oc4nc(-c5ccncc5)nc5ccn(C)c45)ccc3-c3ccncc3)cc2C(F)(F)F)CC1` [III-v-1], the IC50 in the assay with wild-type BaF3 was greater than 10000 nM. For the same compound, the GI50 at CCDC6-RET-BaF3 was 431 nM; on KIF5B-RET-BaF3, 835 nM.
In the case of `COc1cc2nccc(Oc3ccc(NC(=O)C4(C(=O)Nc5ccc(F)cc5)CC4)cc3)c2cc1OC` [Cabozantinib], the GI50 at CCDC6-RET-BaF3 came out at 226 nM; on KIF5B-RET-BaF3, 302 nM. The compound also yielded an IC50 in the assay on LC-2/AD cells of 4150 nM.
For the compound `CN1CCN(Cc2ccc(C(=O)Nc3cc(Oc4nc(-c5ccncc5)nc5cc[nH]c45)ccc3Cl)cc2C(F)(F)F)CC1` [III-k-2], in the assay with wild-type BaF3, the IC50 came out at 1340 nM. Moreover, the values for the GI50 on CCDC6-RET-BaF3 and on KIF5B-RET-BaF3 were 0.79 nM and 17.2 nM, respectively.
The like results for `Cc1ccc(Oc2nc(-c3ccc(Cl)cc3)nc3cc[nH]c23)cc1NC(=O)c1ccc(CN2CCN(C)CC2)c(C(F)(F)F)c1` [III-j-11] were, in that order, 1360 nM, 1530 nM and 1570 nM.

These data come from patent US11319322B2, “Substituted aryl ether compound, preparation method thereof, pharmaceutical composition and use thereof” (Xiamen University, priority 2017, dated 2022).
